The results in this text go back to US9085576B2 (AMGEN INC., priority 2013, dated 2015).

Test [1] addresses Beta Secretase enzyme (BACE) (Homo sapiens (Human), UniProt P56817). The test is described as follows: In vitro enzymatic BACE FRET assay. Particulars: read-out: BACE1 Enzyme assay IC50. Type of test: biochemical.
Protocol: In Vitro Enzymatic BACE FRET (Fluorescence Resonance Energy Transfer) Assay (Enzyme Assay Data in the Example Table I)
The assay buffer used in this screen is 0.05 M acetate, pH 4.2, 10% DMSO final, 100 uM genapol (which is a nonionic detergent, below its Critical Micelle Concentration). […] This assay is effectively started by the addition of FRET substrate (50 nM) and the combination is incubated for one hour. The FRET assay is terminated with by addition of Tris buffer, which raises the pH to neutrality, and the fluorescence is determined. The FRET substrate is a peptide with commercially available fluorophore and quencher, on opposite sides of the BACE cleavage site.
Test [2] addresses BACE (Homo sapiens (Human), UniProt P56817). As to the kind of experiment: In vitro BACE cell-based assay (Aβ40 in conditioned medium, sandwich ELISA). For orientation: ELISA stands for enzyme-linked immunosorbent assay.
Test [3] deals with Cathepsin D (Cat D) (Homo sapiens (Human), UniProt P07339). The test is described as follows: In vitro enzymatic Cathepsin D (Cat D) FRET assay. Type of test: biochemical. As to conditions: read-out: CatD IC50.

Where only a bound is given, the exact number is not on record here.

Chain of Beta Secretase enzyme (BACE) (P56817 46-501): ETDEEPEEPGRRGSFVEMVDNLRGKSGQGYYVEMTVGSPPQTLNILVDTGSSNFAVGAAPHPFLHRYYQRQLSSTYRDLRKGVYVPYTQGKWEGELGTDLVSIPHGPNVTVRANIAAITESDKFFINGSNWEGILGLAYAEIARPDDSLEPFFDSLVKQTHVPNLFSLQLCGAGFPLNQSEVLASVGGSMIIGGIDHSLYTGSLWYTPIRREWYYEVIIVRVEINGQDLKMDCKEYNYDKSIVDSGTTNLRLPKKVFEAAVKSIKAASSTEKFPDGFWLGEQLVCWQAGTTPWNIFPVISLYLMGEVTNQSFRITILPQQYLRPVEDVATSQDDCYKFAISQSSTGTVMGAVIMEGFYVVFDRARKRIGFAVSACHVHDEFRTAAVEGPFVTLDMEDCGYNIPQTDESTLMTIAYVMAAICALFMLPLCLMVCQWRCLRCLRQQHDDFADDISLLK
Chain of BACE (P56817 46-501, species assumed): as the sequence (P56817 46-501) above
Chain of Cathepsin D (Cat D) (P07339 65-412, species assumed): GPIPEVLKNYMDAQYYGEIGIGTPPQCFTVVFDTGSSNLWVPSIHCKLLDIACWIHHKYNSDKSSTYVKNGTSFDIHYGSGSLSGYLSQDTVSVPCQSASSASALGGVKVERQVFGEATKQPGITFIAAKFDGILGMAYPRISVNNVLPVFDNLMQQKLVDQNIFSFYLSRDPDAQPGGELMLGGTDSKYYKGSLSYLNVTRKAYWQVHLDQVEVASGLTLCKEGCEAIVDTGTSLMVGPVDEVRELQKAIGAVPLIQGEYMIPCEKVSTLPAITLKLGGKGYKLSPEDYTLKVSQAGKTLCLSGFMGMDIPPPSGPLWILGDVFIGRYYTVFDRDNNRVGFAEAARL

A word on the IC50: it is the midpoint of a concentration-inhibition curve. `NC1=N[C@@](c2cc(NC(=O)c3cnc(OCc4cscn4)cn3)ccc2F)(C(F)F)[C@H]2C[C@H]2O1` [Example 169, N-(3-((1R,5S,6R)-3-amino-5-(difluoromethyl)-2-oxa-4-azabicyclo[4.1.0]hept-3-en-5-yl)-4-fluorophenyl)-5-(thiazol-4-ylmethoxy)pyrazine-2-carboxamide]: the values for the IC50 in test [1], in test [2] and in test [3] were 0.0366 µM, 0.0418 µM and 582 µM, respectively.

Turning to `NC1=N[C@@](c2cc(NC(=O)c3cnc(OCc4cncs4)cn3)ccc2F)(C(F)F)[C@H]2C[C@H]2O1` [Example 170, N-(3-((1R,5S,6R)-3-amino-5-(difluoromethyl)-2-oxa-4-azabicyclo[4.1.0]hept-3-en-5-yl)-4-fluorophenyl)-5-(thiazol-5-ylmethoxy)pyrazine-2-carboxamide], the values for the IC50 in test [1], in test [2] and in test [3] were 0.0867 µM, 0.56 µM and 445 µM, respectively.

For the compound `NC1=N[C@@](c2cc(NC(=O)c3cnc(OCc4cnco4)cn3)ccc2F)(C(F)F)[C@H]2C[C@H]2O1` [Example 171, N-(3-((1R,5S,6R)-3-amino-5-(difluoromethyl)-2-oxa-4-azabicyclo[4.1.0]hept-3-en-5-yl)-4-fluorophenyl)-5-(oxazol-5-ylmethoxy)pyrazine-2-carboxamide], the figures for the IC50 in test [1], in test [2] and in test [3] were 0.0811 µM, 0.323 µM and 846 µM, respectively.

As to `NC1=N[C@@](c2cc(NC(=O)c3ccc(OCc4nccs4)cn3)ccc2F)(C(F)F)[C@H]2C[C@H]2O1` [Example 172, N-(3-((1R,5S,6R)-3-amino-5-(difluoromethyl)-2-oxa-4-azabicyclo[4.1.0]hept-3-en-5-yl)-4-fluorophenyl)-5-(thiazol-2-ylmethoxy) picolinamide], the IC50 in test [1] was determined as 0.0824 µM; in test [2], 0.446 µM; in test [3] it was 360 µM.

For `NC1=N[C@@](c2cc(NC(=O)c3ccc(OCc4ncco4)cn3)ccc2F)(C(F)F)[C@H]2C[C@H]2O1` [Example 173, N-(3-((1R,5S,6R)-3-amino-5-(difluoromethyl)-2-oxa-4-azabicyclo[4.1.0]hept-3-en-5-yl)-4-fluorophenyl)-5-(oxazol-2-ylmethoxy) picolinamide], the IC50 came to 0.0366 µM in test [1], 0.0789 µM in test [2] and 1010 µM in test [3].

For the compound `Cc1csc(C(=O)Nc2ccc(F)c([C@@]3(C(F)F)N=C(N)O[C@@H]4C[C@@H]43)c2)c1` [Example 176, N-(3-((1R,5S,6R)-3-amino-5-(difluoromethyl)-2-oxa-4-azabicyclo[4.1.0]hept-3-en-5-yl)-4-fluorophenyl)-4-methylthiophene-2-carboxamide], the IC50 was found to be 0.191 µM in test [1], 0.156 µM in test [2] and 835 µM in test [3].

As to `NC1=N[C@@](c2cc(NC(=O)c3cc(Cl)cs3)ccc2F)(C(F)F)[C@H]2C[C@H]2O1` [Example 177, N-(3-((1R,5S,6R)-3-amino-5-(difluoromethyl)-2-oxa-4-azabicyclo[4.1.0]hept-3-en-5-yl)-4-fluorophenyl)-4-chlorothiophene-2-carboxamide], the figures for the IC50 in test [1], in test [2] and in test [3] were 0.185 µM, 0.373 µM and 762 µM, respectively.

As for `N#Cc1csc(C(=O)Nc2ccc(F)c([C@@]3(C(F)F)N=C(N)O[C@@H]4C[C@@H]43)c2)c1` [Example 178, N-(3-((1R,5S,6R)-3-amino-5-(difluoromethyl)-2-oxa-4-azabicyclo[4.1.0]hept-3-en-5-yl)-4-fluorophenyl)-4-cyanothiophene-2-carboxamide], the IC50 in test [1] stood at 1.07 µM; in test [2], 1.56 µM; in test [3], 534 µM.

Turning to `NC1=N[C@@](c2cc(NC(=O)c3ccc(Cl)s3)ccc2F)(C(F)F)[C@H]2C[C@H]2O1` [Example 179, N-(3-((1R,5S,6R)-3-amino-5-(difluoromethyl)-2-oxa-4-azabicyclo[4.1.0]hept-3-en-5-yl)-4-fluorophenyl)-5-chlorothiophene-2-carboxamide], the results for the IC50 in test [1], in test [2] and in test [3] were 0.871 µM, 0.661 µM and 474 µM, respectively.

Regarding `NC1=N[C@@](c2cc(NC(=O)c3ccc(OCF)cn3)ccc2F)(C(F)F)[C@H]2C[C@H]2O1` [Example 180, N-(3-((1R,5S,6R)-3-amino-5-(difluoromethyl)-2-oxa-4-azabicyclo[4.1.0]hept-3-en-5-yl)-4-fluorophenyl)-5-(fluoromethoxy) picolinamide], the IC50 in test [1] is 0.0918 µM; in test [2], 0.0449 µM; in test [3], > 1.65 µM.

Regarding `NC1=N[C@@](c2cc(NC(=O)c3csc(Cl)c3)ccc2F)(C(F)F)[C@H]2C[C@H]2O1` [Example 181, N-(3-((1R,5S,6R)-3-amino-5-(difluoromethyl)-2-oxa-4-azabicyclo[4.1.0]hept-3-en-5-yl)-4-fluorophenyl)-5-chlorothiophene-3-carboxamide], the IC50 came out at 1.4 µM in test [1], 1.14 µM in test [2] and 580 µM in test [3].

For `CS(=O)(=O)c1ccc(C(=O)Nc2ccc(F)c([C@@]3(C(F)F)N=C(N)O[C@@H]4C[C@@H]43)c2)nc1` [Example 182, N-(3-((1R,5S,6R)-3-amino-5-(difluoromethyl)-2-oxa-4-azabicyclo[4.1.0]hept-3-en-5-yl)-4-fluorophenyl)-5-(methylsulfonyl) picolinamide], the IC50 in test [1] stood at 13.1 µM; in test [2], 3.36 µM; in test [3], 565 µM.

For `NC1=N[C@](CF)(c2cc(NC(=O)c3ccc(OCF)cn3)ccc2Cl)[C@H]2C[C@H]2O1` [Example 183, N-(3-((1R,5S,6R)-3-amino-5-(fluoromethyl)-2-oxa-4-azabicyclo[4.1.0]hept-3-en-5-yl)-4-chlorophenyl)-5-(fluoromethoxy) picolinamide], the IC50 came out at 0.0998 µM in test [1], 0.0218 µM in test [2] and 882 µM in test [3].

Consider `Cc1cc(OCC#N)cnc1C(=O)Nc1ccc(F)c([C@@]2(C(F)F)N=C(N)O[C@@H]3C[C@@H]32)c1` [Example 184, N-(3-((1R,5S,6R)-3-amino-5-(difluoromethyl)-2-oxa-4-azabicyclo[4.1.0]hept-3-en-5-yl)-4-fluorophenyl)-5-(cyanomethoxy)-3-methylpicolinamide], for which the IC50 came to 0.357 µM in test [1], 0.62 µM in test [2] and 1090 µM in test [3].

`Cc1cnc(C(=O)Nc2ccc(F)c([C@@]3(C(F)F)N=C(N)O[C@@H]4C[C@@H]43)c2)c(C)c1` [Example 185, N-(3-((1R,5S,6R)-3-amino-5-(difluoromethyl)-2-oxa-4-azabicyclo[4.1.0]hept-3-en-5-yl)-4-fluorophenyl)-3,5-dimethylpicolinamide]: the IC50 came out at 0.107 µM in test [1], 0.148 µM in test [2] and 753 µM in test [3].

As to `Cc1cc(C(F)F)cnc1C(=O)Nc1ccc(F)c([C@@]2(C(F)F)N=C(N)O[C@@H]3C[C@@H]32)c1` [Example 186, N-(3-((1R,5S,6R)-3-amino-5-(difluoromethyl)-2-oxa-4-azabicyclo[4.1.0]hept-3-en-5-yl)-4-fluorophenyl)-5-(difluoromethyl)-3-methylpicolinamide], the IC50 in test [1] is 0.061 µM; in test [2] it was 0.0345 µM; in test [3], 768 µM.

Regarding `COc1ccc(C(=O)Nc2ccc(F)c([C@@]3(C(F)F)N=C(N)O[C@@H]4C[C@@H]43)c2)nn1` [Example 187, N-(3-((1R,5S,6R)-3-amino-5-(difluoromethyl)-2-oxa-4-azabicyclo[4.1.0]hept-3-en-5-yl)-4-fluorophenyl)-6-methoxypyridazine-3-carboxamide], the IC50 was 3.44 µM in test [1], 1.41 µM in test [2] and 667 µM in test [3].

Regarding `Cc1cc(C(F)(F)F)cnc1C(=O)Nc1ccc(F)c([C@@]2(C(F)F)N=C(N)O[C@@H]3C[C@@H]32)c1` [Example 188, N-(3-((1R,5S,6R)-3-amino-5-(difluoromethyl)-2-oxa-4-azabicyclo[4.1.0]hept-3-en-5-yl)-4-fluorophenyl)-3-methyl-5-(trifluoromethyl) picolinamide], the IC50 stood at 0.04 µM in test [1], 0.0279 µM in test [2] and 159 µM in test [3].

As for `Cc1cc(OCC(F)(F)F)cnc1C(=O)Nc1ccc(F)c([C@@]2(C(F)F)N=C(N)O[C@@H]3C[C@@H]32)c1` [Example 189, N-(3-((1R,5S,6R)-3-amino-5-(difluoromethyl)-2-oxa-4-azabicyclo[4.1.0]hept-3-en-5-yl)-4-fluorophenyl)-3-methyl-5-(2,2,2-trifluoroethoxy) picolinamide], the IC50 worked out at 0.12 µM in test [1], 0.386 µM in test [2] and 770 µM in test [3].

For the compound `Cc1ccc(C(=O)Nc2ccc(F)c([C@@]3(C(F)F)N=C(N)O[C@@H]4C[C@@H]43)c2)nc1` [Example 190, N-(3-((1R,5S,6R)-3-amino-5-(difluoromethyl)-2-oxa-4-azabicyclo[4.1.0]hept-3-en-5-yl)-4-fluorophenyl)-5-methylpicolinamide], the IC50 was 0.151 µM in test [1], 0.0735 µM in test [2] and 1470 µM in test [3].

Take `CC(F)(F)Oc1ccc(C(=O)Nc2ccc(F)c([C@@]3(C(F)F)N=C(N)O[C@@H]4C[C@@H]43)c2)nc1` [Example 191, N-(3-((1R,5S,6R)-3-amino-5-(difluoromethyl)-2-oxa-4-azabicyclo[4.1.0]hept-3-en-5-yl)-4-fluorophenyl)-5-(1,1-difluoroethoxy) picolinamide]: the IC50 worked out at 0.415 µM in test [1], 0.536 µM in test [2] and 1070 µM in test [3].

With `COc1cnc(C(=O)Nc2ccc(F)c([C@@]3(CF)N=C(N)O[C@@H]4C[C@@H]43)c2)cn1` [Example 194, N-(3-((1R,5S,6R)-3-amino-5-(fluoromethyl)-2-oxa-4-azabicyclo[4.1.0]hept-3-en-5-yl)-4-fluorophenyl)-5-methoxypyrazine-2-carboxamide], the results for the IC50 in test [1], in test [2] and in test [3] were 0.143 µM, 0.027 µM and 1230 µM, respectively.
